Reference: patent publication US12686873B2, “Plants having increased tolerance to herbicides” (priority 2012, dated 2026)
“And” between values parts separate entries of the source, which are not always exact repeats. Equal values may be shown once.

Legend:
Experiment in all cases: biochemical
[1] = biological target: wild type and amino acid substituted PPO enzyme (Amaranthus tuberculatus, UniProt Q0NZW9, F204I/L397D/T208S); conditions: IC50 (M)
[2] = biological target: wild type and amino acid substituted PPO enzyme (Amaranthus tuberculatus, UniProt Q0NZW9, F204I/T208S); conditions: IC50 (M)
Sequence of wild type and amino acid substituted PPO enzyme (Amaranthus tuberculatus, UniProt Q0NZW9, F204I/T208S) (Q0NZW9 1-534 F204I/T208S): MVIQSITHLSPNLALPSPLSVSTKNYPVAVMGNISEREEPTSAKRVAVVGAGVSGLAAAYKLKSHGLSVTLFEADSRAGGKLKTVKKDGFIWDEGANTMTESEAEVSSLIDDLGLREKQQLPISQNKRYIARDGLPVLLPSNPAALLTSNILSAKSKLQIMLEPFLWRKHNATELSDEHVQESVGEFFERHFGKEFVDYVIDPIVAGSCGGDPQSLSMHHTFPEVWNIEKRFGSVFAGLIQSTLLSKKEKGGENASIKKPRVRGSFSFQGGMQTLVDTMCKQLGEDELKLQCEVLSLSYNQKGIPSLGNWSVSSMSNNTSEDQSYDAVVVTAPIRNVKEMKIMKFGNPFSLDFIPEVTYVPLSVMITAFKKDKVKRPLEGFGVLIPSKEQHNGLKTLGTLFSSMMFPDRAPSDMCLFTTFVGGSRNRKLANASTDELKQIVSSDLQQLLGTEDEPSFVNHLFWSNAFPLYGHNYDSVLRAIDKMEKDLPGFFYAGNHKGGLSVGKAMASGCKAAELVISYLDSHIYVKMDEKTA

[3] = biological target: wild type and amino acid substituted PPO enzyme (Amaranthus tuberculatus, UniProt Q0NZW9, F420V/L397S); conditions: IC50 (M)
[4] = biological target: wild type and amino acid substituted PPO enzyme (Amaranthus tuberculatus, UniProt Q0NZW9, F204I/L397D/L400A/T208S); conditions: IC50 (M)
[5] = biological target: wild type and amino acid substituted PPO enzyme (Amaranthus tuberculatus, UniProt Q0NZW9, F420M/L397V); conditions: IC50 (M)
[6] = biological target: wild type and amino acid substituted PPO enzyme (Amaranthus tuberculatus, UniProt Q0NZW9, F457M/L400A); conditions: IC50 (M)
[7] = biological target: wild type and amino acid substituted PPO enzyme (Amaranthus tuberculatus, UniProt Q0NZW9, F420M/L397A); conditions: IC50 (M)
[8] = biological target: wild type and amino acid substituted PPO enzyme (Amaranthus tuberculatus, UniProt Q0NZW9, F204I/F457M); conditions: IC50 (M)
Sequence of wild type and amino acid substituted PPO enzyme (Amaranthus tuberculatus, UniProt Q0NZW9, F204I/F457M) (Q0NZW9 1-534 F204I/F457M): as the sequence (Q0NZW9 1-534 F204I/T208S) above, with S208T, F457M counted along it

[9] = biological target: wild type and amino acid substituted PPO enzyme (Amaranthus tuberculatus, UniProt Q0NZW9, F204I/L400A); conditions: IC50 (M)
[10] = biological target: wild type and amino acid substituted PPO enzyme (Amaranthus tuberculatus, UniProt Q0NZW5)
Sequence of wild type and amino acid substituted PPO enzyme (Amaranthus tuberculatus, UniProt Q0NZW5) (Q0NZW5 entry or part of it): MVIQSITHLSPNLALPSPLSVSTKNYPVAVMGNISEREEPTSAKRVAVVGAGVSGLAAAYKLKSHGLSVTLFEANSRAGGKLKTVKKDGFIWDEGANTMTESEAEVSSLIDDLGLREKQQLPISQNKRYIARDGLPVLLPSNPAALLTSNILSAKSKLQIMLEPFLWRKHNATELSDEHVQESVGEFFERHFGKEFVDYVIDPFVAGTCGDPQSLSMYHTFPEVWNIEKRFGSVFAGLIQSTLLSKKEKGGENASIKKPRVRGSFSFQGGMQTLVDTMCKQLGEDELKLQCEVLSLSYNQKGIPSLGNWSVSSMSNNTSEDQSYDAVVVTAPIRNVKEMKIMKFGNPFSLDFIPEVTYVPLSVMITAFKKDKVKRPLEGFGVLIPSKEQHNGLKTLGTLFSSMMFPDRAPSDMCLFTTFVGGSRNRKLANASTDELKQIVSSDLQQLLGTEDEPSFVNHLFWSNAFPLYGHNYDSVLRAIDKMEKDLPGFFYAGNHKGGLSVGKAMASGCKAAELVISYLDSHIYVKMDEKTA

[11] = biological target: wild type and amino acid substituted PPO enzyme (Amaranthus tuberculatus, UniProt Q0NZW9, F420M/L397C); conditions: IC50 (M)
[12] = biological target: wild type and amino acid substituted PPO enzyme (Amaranthus tuberculatus, UniProt Q0NZW9, F204I/L400A/T208S); conditions: IC50 (M)
[13] = biological target: wild type and amino acid substituted PPO enzyme (Amaranthus tuberculatus, UniProt Q0NZW9, F420V/F457M); conditions: IC50 (M)
[14] = biological target: wild type and amino acid substituted PPO enzyme (Amaranthus tuberculatus, UniProt Q0NZW9, F204I/F420V/F457M/R128A); conditions: IC50 (M)
[15] = biological target: wild type and amino acid substituted PPO enzyme (Amaranthus tuberculatus, UniProt Q0NZW9, F204I/F420V/F457M/L400A/R128A); conditions: IC50 (M)
[16] = biological target: wild type and amino acid substituted PPO enzyme (Amaranthus tuberculatus, UniProt Q0NZW9, F204I/F420A/F457M/L400A); conditions: IC50 (M)
[17] = biological target: wild type and amino acid substituted PPO enzyme (Amaranthus tuberculatus, UniProt Q0NZW9, F420V/T208S); conditions: IC50 (M)
Sequence of wild type and amino acid substituted PPO enzyme (Amaranthus tuberculatus, UniProt Q0NZW9, F420V/T208S) (Q0NZW9 1-534 T208S/F420V): as the sequence (Q0NZW9 1-534 F204I/T208S) above, with I204F, F420V counted along it

[18] = biological target: wild type and amino acid substituted PPO enzyme (Amaranthus tuberculatus, UniProt Q0NZW9, F420V/L397T); conditions: IC50 (M)
[19] = biological target: wild type and amino acid substituted PPO enzyme (Amaranthus tuberculatus, UniProt Q0NZW9, L397D/R128A); conditions: IC50 (M)
Sequence of wild type and amino acid substituted PPO enzyme (Amaranthus tuberculatus, UniProt Q0NZW9, L397D/R128A) (Q0NZW9 1-534 R128A/L397D): as the sequence (Q0NZW9 1-534 F204I/T208S) above, with R128A, I204F, S208T, L397D counted along it

[20] = biological target: wild type and amino acid substituted PPO enzyme (Amaranthus tuberculatus, UniProt Q0NZW9, F457M/L400A/T208S); conditions: IC50 (M)
[21] = biological target: wild type and amino acid substituted PPO enzyme (Amaranthus tuberculatus, UniProt Q0NZW9, F204I/F420V/F457M); conditions: IC50 (M)
[22] = biological target: wild type and amino acid substituted PPO enzyme (Amaranthus tuberculatus, UniProt Q0NZW9, F204I/F457M/L400A/T208S); conditions: IC50 (M)
[23] = biological target: wild type and amino acid substituted PPO enzyme (Amaranthus tuberculatus, UniProt Q0NZW9, F420V/L397Q); conditions: IC50 (M)
[24] = biological target: wild type and amino acid substituted PPO enzyme (Amaranthus tuberculatus, UniProt Q0NZW9, F420V/L397C); conditions: IC50 (M)
[25] = biological target: wild type and amino acid substituted PPO enzyme (Amaranthus tuberculatus, UniProt Q0NZW9, F420M/L397D); conditions: IC50 (M)
Sequence of wild type and amino acid substituted PPO enzyme (Amaranthus tuberculatus, UniProt Q0NZW9, F420M/L397D) (Q0NZW9 1-534 L397D/F420M): as the sequence (Q0NZW9 1-534 F204I/T208S) above, with I204F, S208T, L397D, F420M counted along it

[26] = biological target: wild type and amino acid substituted PPO enzyme (Amaranthus tuberculatus, UniProt Q0NZW9, F204I/F420V/L400A); conditions: IC50 (M)
[27] = biological target: wild type and amino acid substituted PPO enzyme (Amaranthus tuberculatus, UniProt Q0NZW9, F420V/R128A/T208S); conditions: IC50 (M)
Sequence of wild type and amino acid substituted PPO enzyme (Amaranthus tuberculatus, UniProt Q0NZW9, F420V/R128A/T208S) (Q0NZW9 1-534 R128A/T208S/F420V): as the sequence (Q0NZW9 1-534 F204I/T208S) above, with R128A, I204F, F420V counted along it

[28] = biological target: wild type and amino acid substituted PPO enzyme (Amaranthus tuberculatus, UniProt Q0NZW9, F420V/L397V); conditions: IC50 (M)
[29] = biological target: wild type and amino acid substituted PPO enzyme (Amaranthus tuberculatus, UniProt Q0NZW9, F204I/F420V/F457M/T208S); conditions: IC50 (M)
[30] = biological target: wild type and amino acid substituted PPO enzyme (Amaranthus tuberculatus, UniProt Q0NZW9, F204I/F420V/T208S); conditions: IC50 (M)
[31] = biological target: wild type and amino acid substituted PPO enzyme (Amaranthus tuberculatus, UniProt Q0NZW9, F420V/F457M/T208S); conditions: IC50 (M)
[32] = biological target: wild type and amino acid substituted PPO enzyme (Amaranthus tuberculatus, UniProt Q0NZW9, F420M/L397S); conditions: IC50 (M)
[33] = biological target: wild type and amino acid substituted PPO enzyme (Amaranthus tuberculatus, UniProt Q0NZW9, F457M/T208S); conditions: IC50 (M)
[34] = biological target: wild type and amino acid substituted PPO enzyme (Amaranthus tuberculatus, UniProt Q0NZW9, F204I/F420V/F457M/L400A/T208S); conditions: IC50 (M)
[35] = biological target: wild type and amino acid substituted PPO enzyme (Amaranthus tuberculatus, UniProt Q0NZW9, F204I/F420V); conditions: IC50 (M)
[36] = biological target: wild type and amino acid substituted PPO enzyme (Amaranthus tuberculatus, UniProt Q0NZW9, F204I/F457M/T208S); conditions: IC50 (M)
Sequence of wild type and amino acid substituted PPO enzyme (Amaranthus tuberculatus, UniProt Q0NZW9, F204I/F457M/T208S) (Q0NZW9 1-534 F204I/T208S/F457M): as the sequence (Q0NZW9 1-534 F204I/T208S) above, with F457M counted along it

[37] = biological target: wild type and amino acid substituted PPO enzyme (Amaranthus tuberculatus, UniProt Q0NZW9, L397D/T208S); conditions: IC50 (M)
Sequence of wild type and amino acid substituted PPO enzyme (Amaranthus tuberculatus, UniProt Q0NZW9, L397D/T208S) (Q0NZW9 1-534 T208S/L397D): as the sequence (Q0NZW9 1-534 F204I/T208S) above, with I204F, L397D counted along it

C#CCN1C(=O)C(F)(F)Oc2cc(F)c(-n3c(=O)n(C)c(=S)n(C)c3=O)cc21
IC50 [1]: 5.52e-11 M
IC50 [2]: 1.29e-10 M
IC50 [3]: 4.26e-08 M
IC50 [4]: 2.38e-09 M
IC50 [5]: 1.05e-09 M
IC50 [6]: 1.35e-11 M
IC50 [7]: 4.53e-09 M
IC50 [8]: 7.52e-11 M
IC50 [9]: 4.57e-11 M
IC50 [10]: 2.12 nM
IC50 [11]: 1.79e-09 M
IC50 [12]: 2.64e-11 M
IC50 [13]: 1.02e-09 M
IC50 [14]: 4.63e-08 M
IC50 [15]: 4.05e-07 M
IC50 [16]: 3.69e-08 M
IC50 [17]: 2.34e-09 M
IC50 [18]: 1.31e-08 M
IC50 [19]: 5.9e-09 M
IC50 [20]: 9.68e-12 M
IC50 [21]: 2.1e-09 M
IC50 [22]: 2.88e-11 M
IC50 [23]: 1.01e-07 M
IC50 [24]: 5.54e-08 M
IC50 [25]: 2.95e-08 M
IC50 [26]: 8.23e-08 M
IC50 [27]: 1.25e-08 M
IC50 [28]: 1.21e-08 M
IC50 [29]: 4.72e-09 M
IC50 [30]: 3.87e-09 M
IC50 [31]: 3.41e-09 M
IC50 [32]: 3.33e-09 M
IC50 [33]: 1.95e-10 M
IC50 [34]: 9.24e-08 M
IC50 [35]: 4.69e-09 M
IC50 [36]: 4.21e-11 M and 1.7e-10 M
IC50 [37]: 1.25e-10 M

CC(C)N(C)S(=O)(=O)NC(=O)c1cc(-n2c(=O)cc(C(F)(F)F)n(C)c2=O)c(F)cc1Cl [saflufenacil]
IC50 [2]: 5.89e-11 M
IC50 [8]: 1.89e-11 M
IC50 [10]: 1600 nM
IC50 [17]: 8.48e-07 M
IC50 [19]: ≥ 1e-05 M
IC50 [23]: > 1e-05 M
IC50 [25]: > 1e-05 M
IC50 [27]: > 1e-05 M
IC50 [33]: 1.02e-10 M
IC50 [36]: 5.11e-11 M
IC50 [37]: 4.08e-07 M
